Key:
Assay type in all cases: biochemical
recombinant human MGAT3 = target: T1, recombinant human MGAT3 (Homo sapiens, UniProt Q86VF5); assay: Substrate concentration titration and substrate specificity in the MGAT enzyme assay; settings: for optimal substrate concentration: 10 μg membrane fractions, 10 min at 37° C.; for substrate optimum for acyl-CoAs: acyl-CoAs at 50 μM, 200 μM sn-2-[3H]monooleoylglycerol tracer
T1 construct: predicted to contain the entire open reading frame, was chosen for further study; made in house; host or cells: Spodoptera frugiperda Sf9 insect cells (baculovirus, Bac-to-Bac); 100,000 x g membrane fractions
T1 sequence (Q86VF5 1-341): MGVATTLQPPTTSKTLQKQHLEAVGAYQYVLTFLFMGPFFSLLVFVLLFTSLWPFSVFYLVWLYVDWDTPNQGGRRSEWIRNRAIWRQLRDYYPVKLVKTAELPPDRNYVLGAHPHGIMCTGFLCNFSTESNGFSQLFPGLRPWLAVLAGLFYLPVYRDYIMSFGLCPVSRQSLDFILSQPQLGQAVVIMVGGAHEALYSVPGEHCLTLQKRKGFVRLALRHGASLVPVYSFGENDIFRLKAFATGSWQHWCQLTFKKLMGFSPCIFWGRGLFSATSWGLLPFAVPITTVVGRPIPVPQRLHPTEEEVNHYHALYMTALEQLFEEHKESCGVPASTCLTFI
Experimental: Sf9 cells were setup and infected with either wild type or recombinant MGAT3 viruses as in FIG. 4. After 2 days of infection, the cells were harvested, membrane fractions were prepared and aliquots of membranes were subjected to MGAT enzyme assays with various concentrations of substrates. For A, 200 μM sn-2-monooleoylglycerol and various amounts of [14C]oleoyl coenzyme A (20,000 dpm/nmol) and for B, 50 μM [14C]oleoyl coenzyme A (20,000 dpm/nmol) and various amounts of sn-2-monooleoylglycerol were incubated with 10 μg membrane fractions for 10 min at 37° C. Lipid bands corresponding to TAG and DAG were cut from TLC sheets and counted with scintillation counter. Activities were corrected values of recombinant membranes deducted by values of wild type membranes. Duplicated assays were conducted and the standard deviations were smaller than 10% of the mean.
Sf9 cells were setup and infected either with wild type, recombinant MGAT3 or with DGAT2 viruses as in FIG. 4. Aliquots of membrane fractions (10 μg) were subjected to MGAT assays to determine A) MAG stereoisomer specificity and B) preference of fatty acyl-CoAs. In A, 50 μM [14C]oleoyl coenzyme A (20,000 dpm/nmol) and 200 μM of sn-1-monooleoyglycerol (1-MAG), sn-2-monooleoyglycerol (2-MAG), or […] (3-MAG); and in B, 200 μM sn-2-[3H]monooleoylglycerol (20,000 dpm/nmol) and different acyl-CoAs at 50 μM were incubated with 10 μg membrane fractions at 37° C. for 10 min. C2, acetyl-CoA; M, malonyl-CoA; C4:0, butyryl-CoA; C12:0, lauroyl-CoA; C16:0, palmitoyl-CoA; C18:0, stearoyl-CoA; C20:0, arachidoyl-CoA; C18:1, oleoyl-CoA; C18:2, linoleoyl-CoA; C20:4, arachidonoyl-CoA.
MGAT activities were assayed for 5-10 min at 37° C. in a final volume of 200 μl according to a protocol modified from Coleman (Coleman, R. A. (1992) Methods Enzymol. 209:98-104). Each reaction contained 10 μg of membrane proteins in Assay Buffer (100 mM Tris-HCl, pH7.5, 5 mM MgCl2, 1.25 mg/ml BSA, 250 mM sucrose, 800 μM phophatidylcholine liposomes). Generally, 50 μM of acyl coenzyme A and 200 μM sn-2-monoacylglycerol (delivered in acetone, final acetone concentration <2%) were used. Reactions were started by adding protein and terminated by adding 4 ml chloroform/methanol (2/1, v/v). The extracted lipids were dried, separated by thin layer chromatography (TLC) with hexane/ethyl ether/acetic acid (85/15/0.5, v/v/v).
Identities of triacylglycerol (TAG), diacylglycerol (DAG), monoacylglycerol (MAG), free fatty acid (FFA) and other lipids were verified with lipid standards (Sigma) after staining with iodine vapor. The specific enzyme activities were traced by measuring the incorporation of [14C]oleoyl-CoA (20,000 dpm/nmol) or sn-2-[3H] monooleolyglycerol (20,000 dpm/nmol). Chromatograms were also analyzed with STORM PhosphoImager.

[1] = MGAT enzyme assay (TLC, scintillation counting) of membranes from Sf9 cells expressing the recombinant enzyme; settings: 50 μM [14C]oleoyl coenzyme A
Experimental: Sf9 cells were setup and infected with wild type or recombinant MGAT3 viruses as in FIG. 4. Membrane extracts were prepared from the cells with various post infection times. Aliquots of membrane fractions were either subjected to A) immunoblot analysis with anti-FLAG IgG; or to B) TLC enzyme assays. For substrates, 200 μM sn-2-monooleoylglycerol and 50 μM [14C]oleoyl coenzyme A (20,000 dpm/nmol) were incubated with 10 μg membrane fractions for 6 min at 37° C. After TLC separation, the DAG and the TAG bands were cut from TLC sheets and subjected to scintillation counting. The activities were expressed as nmol/min/mg protein. Values were averages of duplicated determinations and the standard deviations were smaller than 10% of the mean.
The predicted coding sequence of human MGAT3 was fused with an NH2-terminal FLAG epitope (MGDYKDDDDG, (SEQ ID NO:21) epitope underlined) and expressed in Spodoptera frugiperda (Sf9) insect cells using Bac-to-Bac™ kit (Life Technologies) according to manufacturer's instructions. Recombinant FLAG-human-DGAT2 was expressed in the same manner as a control. Generally, cells were infected with viruses (MOI>3) for 2 days. After harvest, cells were washed with PBS, and then homogenized with a probe sonicator in Homogenization Buffer (10 mM Tris-HCl, pH 7.4, 250 mM sucrose, 1× Protease Inhibitor Cocktail [Roche]). Membrane fractions (100,000×g pellets) were stored at −80° C. until use for enzymatic assays. For immunoblot analysis, aliquots of 2 μg of membrane proteins were loaded on SDS-PAGE and probed with an anti-FLAG M2 IgG (Sigma).
MGAT activities were assayed for 5-10 min at 37° C. in a final volume of 200 μl according to a protocol modified from Coleman (Coleman, R. A. (1992) Methods Enzymol. 209:98-104). […]
Identities of triacylglycerol (TAG), diacylglycerol (DAG), monoacylglycerol (MAG), free fatty acid (FFA) and other lipids were verified with lipid standards (Sigma) after staining with iodine vapor. […] Chromatograms were also analyzed with STORM PhosphoImager.

[2] = DGAT activity: exogenous DAG assayed directly with recombinant membranes (TLC); settings: Sf9 membranes, [14C]oleoyl-CoA tracer
[3] = Sf9 cell membranes, 200 μM sn-2-monooleoylglycerol, 6 min at 37° C., highest value of time course

CCCCCCCC/C=C\CCCCCCCC(=O)OC(CO)CO [2-monooleoylglycerol, sn-2-monooleoylglycerol]
optimal substrate concentration (recombinant human MGAT3): 200 µM | MAG stereoisomer specificity (DAG synthesis) (recombinant human MGAT3; 200 μM MAG, 50 μM [14C]oleoyl coenzyme A): prefers 2-MAG as the substrate

CCCCCCCCCCCCCCCC(=O)SCCNC(=O)CCNC(=O)[C@H](O)C(C)(C)COP(=O)(O)OP(=O)(O)OC[C@H]1O[C@@H](n2cnc3c(N)ncnc32)[C@H](O)[C@@H]1OP(=O)(O)O [palmitoyl-CoA]
substrate optimum for acyl-CoAs (recombinant human MGAT3): best substrates

CCCCCCCC/C=C\CCCCCCCC(=O)SCCNC(=O)CCNC(=O)[C@H](O)C(C)(C)COP(=O)(O)OP(=O)(O)OC[C@H]1O[C@@H](n2cnc3c(N)ncnc32)[C@H](O)[C@@H]1OP(=O)(O)O [oleoyl-CoA]
optimal substrate concentration (recombinant human MGAT3): 50 µM | substrate optimum for acyl-CoAs (recombinant human MGAT3): best substrates

B1: DGAT2: recombinant human diacylglycerol acyltransferase 2 expressed in the same manner as a control (protein, listed as Homo Sapiens)
chain: MKTLIAAYSGVLRGERQAEADRSQRSHGGPALSREGSGRWGTGSSILSALQDLFSVTWLNRSKVEKQLQVISVLQWVLSFLVLGVACSAILMYIFCTDCWLIAVLYFTWLVFDWNTPKKGGRRSQWVRNWAVWRYFRDYFPIQLVKTHNLLTTRNYIFGYHPHGIMGLGAFCNFSTEATEVSKKFPGIRPYLATLAGNFRMPVLREYLMSGGICPVSRDTIDYLLSKNGSGNAIIIVVGGAAESLSSMPGKNAVTLRNRKGFVKLALRHGADLVPIYSFGENEVYKQVIFEEGSWGRWVQKKFQKYIGFAPCIFHGRGLFSSDTWGLVPYSKPITTVVGEPITIPKLEHPTQQDIDLYHTMYMEALVKLFDKHKTKFGLPETEVLEVN
modifications: FLAG tag
notes: recombinant human diacylglycerol acyltransferase 2 expressed in the same manner as a control
TAG synthesis from MAG stereoisomers ([1]; Sf9 membranes, 1-MAG, 2-MAG or 3-MAG at 200 μM): able to synthesize similar amount of TAG using three different MAG stereoisomers

B2: MGAT3: monoacylglycerol acyltransferase-3, 341 amino acid protein of SEQ ID NO:2 (protein, listed as Homo Sapiens)
chain: T1 sequence (Q86VF5 1-341)
specific activity for DAG [1, 3]: 22.8 nmol/min/mg | specific activity for TAG [1, 3]: 9.3 nmol/min/mg | acylation of exogenous DAG to TAG (DGAT activity) [2]: able to acylate DAG to form TAG directly
